# Measured values reported in PubChem BioAssay AID1996.
# Settings: buffer; pH 7.4; 200.0 µM
row,Compound,solubility kinetic
1,CCC(=NC(C)c1ccccc1)c1c(O)[nH]c(=O)[nH]c1=O (stereo unspecified),> 43.1 µg/mL
2,O=C(CSc1ccsc1[N+](=O)[O-])NCc1ccccc1,9 µg/mL
3,CN(C)c1ccc(P(=O)(OC2CCCCC2)C(O)c2ccccn2)cc1 (stereo unspecified),> 56.2 µg/mL
4,O=C1/C(=C/c2ccncc2)N2CCC1CC2,> 32.1 µg/mL
5,Cc1ncc(S(=O)(=O)C(C)(C)C)c(N)n1,27.2 µg/mL
6,Cc1ccccc1C(=O)Nc1c(C)[nH]c(=O)[nH]c1=O,> 38.9 µg/mL
7,COc1ccc(/C=C/C(=O)O)cc1S(=O)(=O)N1CCc2ccccc21,> 53.9 µg/mL
8,O=C(C1CCC1)N1CCN(c2ccnc3cc(Cl)ccc23)CC1,45.4 µg/mL
9,O=C1C(Cl)=C(N2CCCCCC2)C(=O)N1c1ccccc1Cl,25.7 µg/mL
10,O=S(=O)(/N=C(/Nc1cccnc1Cl)c1ccccc1)c1ccccc1,> 55.8 µg/mL
11,Cc1c(C(=O)O)oc2ccc(S(=O)(=O)N3CCCC3)cc12,> 46.4 µg/mL
12,CCOC(=O)N1CCN(S(=O)(=O)c2ccc3[nH]c(=O)oc3c2)CC1,45.6 µg/mL
13,Cc1ccc(C2Nc3ccccc3C(=O)N2CCN2CCNC2=O)cc1 (stereo unspecified),> 52.6 µg/mL
14,CCC1CN(C(=O)NCc2ccccc2)c2ccccc2O1 (stereo unspecified),43.2 µg/mL
15,CN(C)C=Nc1c(Br)cc(Br)c2nonc12,6 µg/mL
16,CCCCCCc1c(C)[nH]c2nc3ccccc3n2c1=O,< 0.2 µg/mL
17,COc1ccc(-c2ccc(C(=O)O)c(=O)[nH]2)cc1,> 36.8 µg/mL
18,CC1CN(S(=O)(=O)c2cc(C(=O)NCCCN3CCCC3=O)ccc2Cl)CC(C)O1 (stereo unspecified),> 68.7 µg/mL
19,CCOc1ccccc1NC(=O)c1cccc(NC(=O)C2CCCC2)c1,13.4 µg/mL
20,O=[N+]([O-])c1cccc(CN2CCCCCC2)c1,31.7 µg/mL
21,NC(=O)NNC(=S)Nc1cccc2ccccc12,> 39 µg/mL
22,CCC(=O)N1CCN=C1SCc1c(F)cccc1Cl,12.6 µg/mL
23,COc1ccc(CC(=O)NC(=S)Nc2cccc(CO)c2)cc1,49.3 µg/mL

row,Compound,solubility kinetic
1,O=C(C1CCC1)N1CCN(c2ccc(Cl)cc2)CC1,36.4 µg/mL
2,CCOC(=O)C1CCN(C(=O)CN2C(=O)NC(C)(c3ccc4cc(OC)ccc4c3)C2=O)CC1 (stereo unspecified),15.6 µg/mL
3,CN(C)C(=O)COc1ccc(C(=O)/C=C/c2cccnc2)cc1,41.6 µg/mL
4,O=c1cc(C(F)(F)F)nc(SCc2cccc3ccccc23)[nH]1,7.5 µg/mL
5,Cc1ccc2cc(NC(=O)CC(CC(=O)O)c3ccccc3)ccc2n1 (stereo unspecified),47 µg/mL
6,CCCn1c(SCC(=O)Nc2ccc(F)c(Cl)c2)nc(O)cc1=O,> 55.8 µg/mL
7,Cc1ccc(OCCNC(=O)CNC(=O)c2ccc(Cl)c([N+](=O)[O-])c2)cc1,12.6 µg/mL
8,O=C(Nc1cccc(Cl)c1)C1=CC=CN2CCS(=O)(=O)N=C12,7.1 µg/mL
9,CC(=O)Oc1ccc2nc(/C=C/c3ccccc3)oc(=O)c2c1,0.9 µg/mL
10,O=C(NC(Cc1ccccc1)C(=O)NC1CC1)OCc1ccccc1 (stereo unspecified),11.5 µg/mL
11,COC(=O)CN1C(=O)Nc2ccc(Cl)cc2C1c1ccccc1 (stereo unspecified),2.1 µg/mL
12,COc1ccccc1C(C)NC(=O)Cc1ccsc1 (stereo unspecified),> 41.3 µg/mL
13,Cn1c(Nc2ccc(F)cc2)nc2ccccc21,28 µg/mL
14,COc1ccc2nc(C(F)(F)Cl)c(C#N)c(N)c2c1,3.8 µg/mL
15,CN(C(=O)Nc1ccccc1)C1CCCc2ccccc21 (stereo unspecified),> 42.1 µg/mL
16,O=C(CCSCc1ccc(Cl)cc1)NCc1cccnc1,48 µg/mL
17,COc1cc(N)c(Cl)cc1C(=O)OCC(=O)Nc1ccc(N2CCOCC2)cc1,4.9 µg/mL
18,CC1CCN(CC#CCOc2ccc(Cl)cc2)CC1.O=C(O)C(=O)O,16.3 µg/mL
19,CCOc1ccc(CNC(=O)Nc2ccccc2)cc1,3.8 µg/mL
20,O=C(Nc1ncccc1O)c1c(O)c2ccccc2[nH]c1=O,11.1 µg/mL
21,COc1ccc(-c2cc(C(=O)NCc3ccco3)c3ccccc3n2)cc1OC,1.7 µg/mL
22,Cc1ccc(C(=O)NCc2ccc3c(c2)CCO3)cc1C,31.2 µg/mL
23,CCCCN(CC)C(=O)c1cc2c(=O)[nH]c3ccc(C)cc3c2s1,0.5 µg/mL
